According to patent publication US8110703B2, “Retinoid derivative and pharmaceutical composition and use thereof” (Anhui Medical University, priority 2008, dated 2012):
Marks after values point to notes of the source that are not given here.

Legend:
Type in all cases: cell-based
A549 cells [1] = assay: Cell cycle and apoptosis by flow cytometry, A549; settings: A549, 10 μg/ml, 3 days
Description: 1.4 Detection of Cell Cycle and Apoptosis by Flow Cytometry A549 cells in the logarithmic phase are collected, regulated with the concentrations thereof to 8×10^7/L, inoculated in a 6-hole board, cultured in an incubator (37° C. and 5% CO2). After the cells are adhered, the culture solution is discarded, and a culture solution having drugs with the corresponding concentrations is added and divided into 10 μg/ml drug groups, 10 μg/ml fenretinide groups, cell control groups, solvent control groups (1‰ DMSO and anhydrous ethanol) (11 in total). After 3 days, each group of cells is normally digested, collected, blown into single cell suspension, washed by cold PBS twice, and re-suspend by 10 μl PBS. Fixing and member breaking agents and a PI staining solution are added according to the Coulter DNA detection kit and reacted with one another at the room temperature and out of light for 30 min for machine detection. Each sample detects 10000 cells and repeats for three times, and the data are analyzed by Analysis software for the ratio during the G0-G1, S and G2-M periods and the ratio of apoptotic cells.

NB4 cells = assay: Cell cycle analysis by flow cytometer, NB4; design: S %: dose or concentration left out as unconfirmed; settings: 72 h
In short: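 NB4 and K562 cells in RPMI1640 with 10% FBS were exposed to compounds […] for 72 h. Then they were fixed in 70% cold ethanol and stained with 5 ug/ml propidium iodide for cell-cycle profiling by flow cytometry.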

HepG2 cells [2] = assay: AFP secretory volume of HepG2 cells; settings: for AFP: HepG2 cells
liver cancer HepG2 cells = assay: MTT cell growth and proliferation experiment, HepG2; design: key to Inhibition Rate: (control OD570 − test OD570)/control OD570, as fraction; settings: for Inhibition Rate: fraction
In short: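 After treatment, 20 ul/well of MTT (5 g/L) was added for 4 h at 37° C. The medium was then removed and 20 ul/well DMSO added to dissolve the crystals. Plates were shaken 10 min and read at 570 nm. Inhibition rate was (control OD570 − experimental OD570)/control OD570 × 100%, averaged over three experiments.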

HepG2 cells [3] = assay: γ-GT specific activity of HepG2 cells
A549 cells [4] = assay: Differentiation index: CEA secretory volume of A549 cells; settings: A549 culture supernatant, 10 ug/ml, 3 d
Description: 1.6 Detection of Differentiation Index The cultured A549 cells are randomly divided into 6 10 μg/ml drug groups, cell control groups, solvent control groups (DMSO and ethanol) and 10 μg/ml fenretinide control groups (11 in total). The control groups and drug groups are cultured for 3 days to collect respective 3 tubes of cell culture solutions which are centrifugated at a speed of 4000 r/min for 5 min to take the supernatant and detect the CEA content of the kit by using enzyme kinetics and CEA detection.

HepG2 cells [5] = assay: Cell cycle and apoptosis by flow cytometry, HepG2; settings: for Apoptosis Rate (%) / G0-G1 (%) / G2-M (%) / S %: HepG2, flow cytometry
[6] = HepG2, MTT OD 570 nm, 1 ug/ml, 3 d, solvent not given
[7] = HepG2, MTT OD 570 nm, 5 ug/ml, 3 d, solvent not given
[8] = HepG2, MTT OD 570 nm, 10 ug/ml, 3 d, solvent not given
[9] = HepG2, MTT time gradient, 10 ug/ml, 1 d
[10] = HepG2, MTT time gradient, 10 ug/ml, 2 d
[11] = HepG2, MTT time gradient, 10 ug/ml, 3 d
[12] = HepG2, MTT time gradient, 10 ug/ml, 7 d
[13] = HepG2, MTT, 1 ug/ml, 3 d, solvent not given
[14] = HepG2, MTT, 5 ug/ml, 3 d, solvent not given
[15] = HepG2, MTT, 10 ug/ml, 3 d, solvent not given
[16] = HepG2, Table 5 repeat MTT, 10 ug/ml, 3 days, ethanol
[17] = HepG2, Table 5 repeat MTT, 10 ug/ml, 3 days, DMSO
[18] = HepG2, MTT time gradient, in DMSO, 1 d, concentration not given
[19] = HepG2, MTT time gradient, in DMSO, 2 d, concentration not given
[20] = HepG2, MTT time gradient, in DMSO, 3 d, concentration not given
[21] = HepG2, MTT time gradient, in DMSO, 7 d, concentration not given
[22] = HepG2, MTT time gradient, in ethanol, 1 d, concentration not given
[23] = HepG2, MTT time gradient, in ethanol, 2 d, concentration not given
[24] = HepG2, MTT time gradient, in ethanol, 3 d, concentration not given
[25] = HepG2, MTT, 3 d, Table 3 control drug in DMSO, concentration not given
[26] = HepG2, MTT, 3 d, Table 3 control drug in ethanol, concentration not given
[27] = HepG2, Table 5 repeat MTT, 3 days, DMSO, concentration not given
[28] = HepG2, Table 5 repeat MTT, 3 days, ethanol, concentration not given

## CC1=C(/C=C/C(C)=C/C=C/C(C)=C/C(=O)Oc2ccc(N)cc2C(F)(F)F)C(C)(C)CCC1 [Example 4a-02, (4-amino-2-trifluoromethylphenyl)-(all-trans)-3,7-dimethyl-9-(2,6,6-trimethyl-1-cyclohexen-1-yl)-2,4,6,8-nonatetraenoate]
A549 cells [1]; PI flow cytometry
  Apoptosis Rate (%): 23.9%
  G0-G1 (%): 44.1%
  G2-M (%): 1.90%
  S %: 29.4%
NB4 cells
  G1 %: 52.59%
  G2 %: 7.68%
  S %: 39.73%
HepG2 cells [2]; HepG2, compared with the control groups, P less than 0.05
  effects on AFP secretory volume (statistics, in words): meaningful in statistics
HepG2 cells [2]; ethanol
  AFP: 10.4* ug/L
Liver cancer HepG2 cells; [6]
  OD Value (x ± s): 1.50 ± 0.24
Liver cancer HepG2 cells; [7]
  OD Value (x ± s): 1.32 ± 0.50
Liver cancer HepG2 cells; [8]
  OD Value (x ± s): 0.86 ± 0.13
Liver cancer HepG2 cells; [9]
  OD Value (x ± s): 1.53 ± 0.27
  Inhibition Rate: 0.11
Liver cancer HepG2 cells; [10]
  OD Value (x ± s): 1.36 ± 0.13
  Inhibition Rate: 0.20
Liver cancer HepG2 cells; [11]
  OD Value (x ± s): 0.74 ± 0.08
  Inhibition Rate: 0.46
Liver cancer HepG2 cells; [12]
  OD Value (x ± s): 0.70 ± 0.05
  Inhibition Rate: 0.48
Liver cancer HepG2 cells; [13]
  Inhibition Rate: 0.11
Liver cancer HepG2 cells; [14]
  Inhibition Rate: 0.22
Liver cancer HepG2 cells; [15]
  Inhibition Rate: 0.49
Liver cancer HepG2 cells; [16]
  OD Value (x ± s): 1.409 ± 0.090
  Inhibition Rate: 0.349*
HepG2 cells [3]; ethanol
  γ-GT: 32.6 ± 1.5 U/L
A549 cells [4]; DMSO
  CEA: 3.1 µg/L
HepG2 cells [5]; HepG2
  effect on the apoptosis of HepG2 cells (ranking in words): most greatly effects on the apoptosis of HepG2 cells
HepG2 cells [5]
  Apoptosis Rate (%): 38.1* %
  G0-G1 (%): 30.9%
  G2-M (%): 3.20%
  S %: 28.5%

## CC1=C(/C=C/C(C)=C/C=C/C(C)=C/C(=O)Nc2cccc(OC(F)(F)F)c2)C(C)(C)CCC1 [Example 6a-02, (3-trifluoromethoxyphenyl)-(all-trans)-3,7-dimethyl-9-(2,6,6-trimethyl-1-cyclohexen-1-yl)-2,4,6,8-nonatetraenoic acid amide]
A549 cells [1]; PI flow cytometry
  Apoptosis Rate (%): 9.79%
  G0-G1 (%): 70.0%
  G2-M (%): 1.71%
  S %: 19.0%
NB4 cells
  G1 %: 75.47%
  G2 %: 5.52%
  S %: 19.01%
HepG2 cells [2]; DMSO
  AFP: 15.6 µg/L
Liver cancer HepG2 cells; [6]
  OD Value (x ± s): 1.38 ± 0.62
Liver cancer HepG2 cells; [7]
  OD Value (x ± s): 1.16 ± 0.38
Liver cancer HepG2 cells; [8]
  OD Value (x ± s): 0.84 ± 0.31
Liver cancer HepG2 cells; [9]
  OD Value (x ± s): 1.60 ± 0.19
  Inhibition Rate: 0.07
Liver cancer HepG2 cells; [10]
  OD Value (x ± s): 1.14 ± 0.09
  Inhibition Rate: 0.32
Liver cancer HepG2 cells; [11]
  OD Value (x ± s): 0.81 ± 0.12
  Inhibition Rate: 0.34
Liver cancer HepG2 cells; [12]
  OD Value (x ± s): 0.49 ± 0.32
  Inhibition Rate: 0.63
Liver cancer HepG2 cells; [13]
  Inhibition Rate: 0.18
Liver cancer HepG2 cells; [14]
  Inhibition Rate: 0.31
Liver cancer HepG2 cells; [15]
  Inhibition Rate: 0.50
Liver cancer HepG2 cells; [17]
  OD Value (x ± s): 1.125 ± 0.146
  Inhibition Rate: 0.480*
HepG2 cells [3]; DMSO
  γ-GT: 42.3 ± 2.0 U/L
A549 cells [4]; DMSO
  CEA: 3.5 µg/L
HepG2 cells [5]
  Apoptosis Rate (%): 15.7* %
  G0-G1 (%): 57.5%
  G2-M (%): 2.61%
  S %: 25.4%

## CC1=C(/C=C/C(C)=C/C=C/C(C)=C/C(=O)Nc2ccc(O)cc2)C(C)(C)CCC1 [Fenretinide, reference compound]
A549 cells [1]; in DMSO
  Apoptosis Rate (%): 29.3%
  G0-G1 (%): 47.2%
  G2-M (%): 2.09%
  S %: 22.2%
A549 cells [1]; in ethanol
  Apoptosis Rate (%): 14.0%
  G0-G1 (%): 59.3%
  G2-M (%): 2.63%
  S %: 24.5%
NB4 cells
  G1 %: 63.25%
  G2 %: 4.03%
  S %: 33.72%
HepG2 cells [2]; DMSO
  AFP: 15.1 µg/L
HepG2 cells [2]; ethanol
  AFP: 14.9 µg/L
Liver cancer HepG2 cells; [18]
  OD Value (x ± s): 1.61 ± 0.16
  Inhibition Rate: 0.09
Liver cancer HepG2 cells; [19]
  OD Value (x ± s): 1.37 ± 0.07
  Inhibition Rate: 0.19
Liver cancer HepG2 cells; [20]
  OD Value (x ± s): 1.07 ± 0.20
  Inhibition Rate: 0.13
Liver cancer HepG2 cells; [21]
  OD Value (x ± s): 1.17 ± 0.06
  Inhibition Rate: 0.14
Liver cancer HepG2 cells; [22]
  OD Value (x ± s): 1.67 ± 0.05
  Inhibition Rate: 0.05
Liver cancer HepG2 cells; [23]
  OD Value (x ± s): 1.31 ± 0.09
  Inhibition Rate: 0.22
Liver cancer HepG2 cells; [24]
  OD Value (x ± s): 1.06 ± 0.09
  Inhibition Rate: 0.14
Liver cancer HepG2 cells; [25]
  OD Value (x ± s): 1.27 ± 0.25
  Inhibition Rate: 0.25
Liver cancer HepG2 cells; [26]
  OD Value (x ± s): 1.28 ± 0.21
  Inhibition Rate: 0.24
Liver cancer HepG2 cells; [27]
  OD Value (x ± s): 1.469 ± 0.078
  Inhibition Rate: 0.322*
Liver cancer HepG2 cells; [28]
  OD Value (x ± s): 1.422 ± 0.123
  Inhibition Rate: 0.343*
HepG2 cells [3]; DMSO
  γ-GT: 66.6 ± 0.5 U/L
HepG2 cells [3]; ethanol
  γ-GT: 61.0 ± 1.0 U/L
A549 cells [4]; DMSO
  CEA: 4.5 µg/L
A549 cells [4]; ethanol
  CEA: 4.3 µg/L
HepG2 cells [5]; in DMSO
  Apoptosis Rate (%): 5.71%
  G0-G1 (%): 67.3%
  G2-M (%): 7.64%
  S %: 19.8%
HepG2 cells [5]; in ethanol
  Apoptosis Rate (%): 10.6%
  G0-G1 (%): 60.0%
  G2-M (%): 5.69%
  S %: 24.1%
